# Test results: patent publication US8748436B2, “Carboxylic acid derivatives having a 2,5,7-substituted oxazolopyrimidine ring” (Sanofi, priority 2010, dated 2014)
# Target: T1, human Edg-1 receptor (Homo sapiens, UniProt P21453)
# T1 construct: FLAG (N); expressed in transfected cells; membrane preparation
# Assay: GTP-γ-S assay using human Edg-1 receptors (scintillation proximity assay, CHO Flp-In cell membrane preparation)
# Format: biochemical
# Conditions: test compound at 10 μM; high control 10 μM S1P regarded as 100% activation; [35S]GTP-γ-S binding, triplicate; read-out: % Activation (Edg-1 receptor activation in percent of the activation by 10 μM S1P)
# How it was run: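 Scintillation proximity GTP-γ-S binding measured receptor activation. Membranes came from a stably transfected CHO Flp-In line constitutively overexpressing N-terminally FLAG-tagged human Edg-1. Membranes were prepared by hypotonic lysis (5 mM HEPES, 1 mM EDTA, protease inhibitors) at 4 °C and Dounce homogenisation.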
# T1 sequence (P21453 whole entry): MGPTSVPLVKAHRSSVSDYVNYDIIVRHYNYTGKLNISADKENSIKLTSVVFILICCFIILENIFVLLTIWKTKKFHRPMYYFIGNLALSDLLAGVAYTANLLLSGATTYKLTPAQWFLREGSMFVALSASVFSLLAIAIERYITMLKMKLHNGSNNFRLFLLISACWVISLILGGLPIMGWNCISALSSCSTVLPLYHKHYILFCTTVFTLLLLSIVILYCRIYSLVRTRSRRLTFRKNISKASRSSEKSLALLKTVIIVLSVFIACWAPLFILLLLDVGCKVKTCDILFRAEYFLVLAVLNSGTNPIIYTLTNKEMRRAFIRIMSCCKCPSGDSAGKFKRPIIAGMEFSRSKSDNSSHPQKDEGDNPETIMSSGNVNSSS
row,Structure (SMILES),activation at 10 µM [%]
1,"CCCOc1nc(Oc2cc(F)cc(C(F)(F)F)c2)nc2oc(-c3cc(C)c(OCC(=O)O)c(C)c3)nc12 [Example 75, {4-[5-(3-fluoro-5-trifluoromethylphenoxy)-7-propoxy-oxazolo[5,4-d]pyrimidin-2-yl]-2,6-dimethyl-phenoxy}-acetic acid]",48
2,"CCCOc1nc(Oc2cccc(SC(F)(F)F)c2)nc2oc(-c3cc(C)c(OCC(=O)O)c(C)c3)nc12 [Example 76, {2,6-dimethyl-4-[7-propoxy-5-(3-trifluoromethylsulfanyl-phenoxy)-oxazolo[5,4-d]pyrimidin-2-yl]-phenoxy}-acetic acid]",81
3,"CCCOc1nc(Oc2cc(C(F)(F)F)ccc2Cl)nc2oc(-c3cc(C)c(OCC(=O)O)c(C)c3)nc12 [Example 77, {4-[5-(2-chloro-5-trifluoromethylphenoxy)-7-propoxy-oxazolo[5,4-d]pyrimidin-2-yl]-2,6-dimethyl-phenoxy}-acetic acid]",77
4,"CCCOc1nc(Oc2ccc(Cl)c(C(F)(F)F)c2)nc2oc(-c3cc(C)c(OCC(=O)O)c(C)c3)nc12 [Example 78, {4-[5-(4-chloro-3-trifluoromethylphenoxy)-7-propoxy-oxazolo[5,4-d]pyrimidin-2-yl]-2,6-dimethylphenoxy}-acetic acid]",72
5,"CCCOc1nc(Oc2cccc(C(F)(F)F)c2Cl)nc2oc(-c3cc(C)c(OCC(=O)O)c(C)c3)nc12 [Example 79, {4-[5-(2-chloro-3-trifluoromethylphenoxy)-7-propoxy-oxazolo[5,4-d]pyrimidin-2-yl]-2,6-dimethylphenoxy}-acetic acid]",82
